The assay relates to microorganisms. Nature of the assay: Bactericidal testing of toothpaste final base made with contaminated PCC slurry (plate count). To be noted: final toothpaste base with previously contaminated PCC slurry, plated on MLA, 30° C. The procedure:
In a stainless steel bucket, water and humectant was first added and stirred using an overhead stirrer (EUROSTAR 200, IKA, North Carolina, USA) equipped with a cowles disperser. Mixing was started at 500 rpm for 1 minute. Gum and salts (buffering agents, sweetener, fluoride) were added next and the resulting solution was mixed at 1,000 rpm for 20 minutes to obtain a gel phase.
A fraction of the gel phase sample was transferred to a new stainless steel bucket. Using an overhead stirrer (EUROSTAR 200, IKA) equipped with a 4-bladed propeller stirrer, mixing was performed at 750 rpm for 1 minute. Next, to the mixture was added water, PCC slurry (previously contaminated for the study purpose), surfactant, and other ingredients (benzyl alcohol/caprylyl glycol or phenethyl alcohol/caprylyl glycol) and mixed for 15 minutes to obtain the final base.
Sample preparation was made by mixing 10 grams of the final base (see Example 1) with 90 mL of diluent (TAT broth (catalog #298410, BD) supplemented with 0.3% NaCl and 4% Tween) to achieve a 1:10 dilution. Serial dilutions of 10^−1 to 10^−6 were made in neutralizing broth (TAT supplemented with 0.3% NaCl), allowed to incubate for 0, 2, 4, 6, 24 and 48 hours, and plated in 15-20 mL of melted Modified Letheen Agar (MLA). Plates were swirled to allow complete dispersion and allowed to solidify. Solidified plates were then inverted and incubated at 30° C. for at least 48 hours. Colonies were counted using a Quebec colony counter (Phoenix Luferco, Brazil). Table 2 presents the study results, showing numbers of microorganisms per gram of product (CFU/) at different time points.

Each structure is given as a SMILES string.

With `OCc1ccccc1` [Benzyl alcohol (0.30%), Benzyl alcohol], the “numbers of microorganisms per gram of product, 0 hr” value is listed as 13,300 CFU/; the “numbers of microorganisms per gram of product, 2 hr” value is 18,250 CFU/; the “numbers of microorganisms per gram of product, 4 hr” value is reported as 13,000 CFU/; the “numbers of microorganisms per gram of product, 6 hr” value is reported as 8,000 CFU/. Besides, the “numbers of microorganisms per gram of product, 24 hr” value is listed as 3,650 CFU/ and the “numbers of microorganisms per gram of product, 48 hr” value worked out at 125 CFU/.
Turning to `CCCCCCC(O)CO` (stereo not drawn) [Caprylyl glycol (0.20%), Caprylyl glycol], the “numbers of microorganisms per gram of product, 0 hr” value was 13,300 CFU/; the “numbers of microorganisms per gram of product, 2 hr” value is reported as 14,000 CFU/; the “numbers of microorganisms per gram of product, 4 hr” value is 1,200 CFU/; the “numbers of microorganisms per gram of product, 6 hr” value was 2,100 CFU/. In addition, the “numbers of microorganisms per gram of product, 24 hr” value stood at 435 CFU/ and the “numbers of microorganisms per gram of product, 48 hr” value was 80 CFU/.

Values taken from US10596082B2, “Oral care compositions and methods of use” (Colgate-Palmolive Company, priority 2017, dated 2020).
